Measured values published in ChEMBL document CHEMBL1201862, “PubChem BioAssay data set” (2004).
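Results reflect a 48-hour exposure of cells in 96-well plates to compound at five concentrations. GI50: concentration for 50% inhibition of growth.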 Active and inactive are the calls of the source. Rule as the data show it: active = GI50 up to about 1.1 µM and inactive = higher.

What was measured:
Assay in all cases: NCI tumour cell line growth inhibition, 48 h
SN12C = tested on: SN12C
MCF7 = tested on: MCF7
SNB-75 = tested on: SNB-75
PC-3 = tested on: PC-3
KM12 = tested on: KM12
HOP-92 = tested on: HOP-92
COLO 205 = tested on: COLO 205
U-251 = tested on: U-251
Hs-578T = tested on: Hs-578T
T47D = tested on: T47D
SF-295 = tested on: SF-295
OVCAR-8 = tested on: OVCAR-8
UO-31 = tested on: UO-31
EKVX = tested on: EKVX
MDA-N = tested on: MDA-N
786-0 = tested on: 786-0
SW-620 = tested on: SW-620
IGROV-1 = tested on: IGROV-1
CCRF-CEM = tested on: CCRF-CEM
SK-OV-3 = tested on: SK-OV-3
HCT-15 = tested on: HCT-15
NCI-H226 = tested on: NCI-H226
SK-MEL-2 = tested on: SK-MEL-2
MDA-MB-435 = tested on: MDA-MB-435
SK-MEL-5 = tested on: SK-MEL-5
MOLT-4 = tested on: MOLT-4
HCC 2998 = tested on: HCC 2998
DU-145 = tested on: DU-145
CAKI-1 = tested on: CAKI-1
OVCAR-5 = tested on: OVCAR-5
HOP-62 = tested on: HOP-62
SK-MEL-28 = tested on: SK-MEL-28
LOX IMVI = tested on: LOX IMVI
NCI-H460 = tested on: NCI-H460
Malme-3M = tested on: Malme-3M
TK-10 = tested on: TK-10
HT-29 = tested on: HT-29
HL-60 = tested on: HL-60
SNB-19 = tested on: SNB-19
SR = tested on: SR
A549 = tested on: A549
MDA-MB-231 = tested on: MDA-MB-231
M14 = tested on: M14
SF-539 = tested on: SF-539
UACC-62 = tested on: UACC-62
NCI-H23 = tested on: NCI-H23
OVCAR-4 = tested on: OVCAR-4
BT-549 = tested on: BT-549
OVCAR-3 = tested on: OVCAR-3
HCT-116 = tested on: HCT-116
UACC-257 = tested on: UACC-257
K562 = tested on: K562
ACHN = tested on: ACHN
A498 = tested on: A498
NCI/ADR-RES = tested on: NCI/ADR-RES
RXF 393 = tested on: RXF 393
SF-268 = tested on: SF-268
NCI-H522 = tested on: NCI-H522

`COc1cc2c(cc1OC)CN1CCc3ccccc3CC1C2` (stereo unspecified) was tested, and the GI50 (SN12C) was 40.7 µM (inactive), the GI50 (MCF7) was 25.6 µM (inactive) and the GI50 (SNB-75) was 29 µM (inactive). The GI50 (PC-3) was 41.7 µM (inactive), the GI50 (KM12) was 33.1 µM (inactive) and the GI50 (HOP-92) was 12.5 µM (inactive). The GI50 (COLO 205) was 25.1 µM (inactive), the GI50 (U-251) was 93.1 µM (inactive) and the GI50 (Hs-578T) was > 100 µM (inactive). For the same compound, the GI50 (T47D) was 22.5 µM (inactive), the GI50 (SF-295) was 34.6 µM (inactive) and the GI50 (OVCAR-8) was 44.1 µM (inactive). For the same compound, the GI50 (UO-31) was 22.9 µM (inactive), the GI50 (EKVX) was 47.3 µM (inactive) and the GI50 (MDA-N) was 44.1 µM (inactive). For the same compound, the GI50 (786-0) was 36.3 µM (inactive), the GI50 (SW-620) was 37.8 µM (inactive) and the GI50 (IGROV-1) was 17.5 µM (inactive). For the same compound, the GI50 (CCRF-CEM) was 36.9 µM (inactive), the GI50 (SK-OV-3) was 53.5 µM (inactive) and the GI50 (HCT-15) was 39.4 µM. For the same compound, the GI50 (NCI-H226) was 42.1 µM (inactive), the GI50 (SK-MEL-2) was 34.3 µM (inactive) and the GI50 (MDA-MB-435) was 86.5 µM (inactive). For the same compound, the GI50 (SK-MEL-5) was 27.1 µM (inactive), the GI50 (MOLT-4) was 28.8 µM (inactive) and the GI50 (HCC 2998) was 28.8 µM (inactive). For the same compound, the GI50 (DU-145) was 37.6 µM (inactive), the GI50 (CAKI-1) was 42.4 µM (inactive) and the GI50 (OVCAR-5) was > 100 µM (inactive). For the same compound, the GI50 (HOP-62) was 65.8 µM (inactive), the GI50 (SK-MEL-28) was 63.1 µM (inactive) and the GI50 (LOX IMVI) was 39 µM (inactive). For the same compound, the GI50 (NCI-H460) was 26.3 µM (inactive), the GI50 (Malme-3M) was 25.8 µM (inactive) and the GI50 (TK-10) was 13.7 µM (inactive). The GI50 (HT-29) was 12.6 µM (inactive), the GI50 (HL-60) was 27.2 µM (inactive) and the GI50 (SNB-19) was 52 µM (inactive). For the same compound, the GI50 (SR) was 0.208 µM (active), the GI50 (A549) was 49.7 µM (inactive) and the GI50 (MDA-MB-231) was > 100 µM (inactive). For the same compound, the GI50 (M14) was 30.1 µM (inactive), the GI50 (SF-539) was 34.4 µM (inactive) and the GI50 (UACC-62) was 23.6 µM (inactive). For the same compound, the GI50 (NCI-H23) was 31.9 µM (inactive), the GI50 (OVCAR-4) was 16.1 µM (inactive) and the GI50 (BT-549) was 31.3 µM (inactive). For the same compound, the GI50 (OVCAR-3) was 97.5 µM (inactive), the GI50 (HCT-116) was 23.8 µM (inactive) and the GI50 (UACC-257) was 51.4 µM (inactive). The GI50 (K562) was 32.9 µM (inactive), the GI50 (ACHN) was 22.6 µM (inactive) and the GI50 (A498) was 43.3 µM (inactive). For the same compound, the GI50 (NCI/ADR-RES) was 54.7 µM (inactive).

With `CCCCCCCCC/C=C1/CC(CO)(COC(=O)C2CCCCC2)OC1=O` (stereo unspecified) the GI50 (SN12C) was > 100 µM (inactive), the GI50 (MCF7) was > 100 µM (inactive) and the GI50 (SNB-75) was > 100 µM (inactive). For the same compound, the GI50 (PC-3) was > 100 µM (inactive), the GI50 (KM12) was > 100 µM (inactive) and the GI50 (HOP-92) was > 100 µM (inactive). For the same compound, the GI50 (COLO 205) was 34 µM (inactive), the GI50 (U-251) was > 100 µM (inactive) and the GI50 (Hs-578T) was 62.8 µM (inactive). For the same compound, the GI50 (T47D) was > 100 µM (inactive), the GI50 (SF-295) was > 100 µM (inactive) and the GI50 (OVCAR-8) was > 100 µM (inactive). For the same compound, the GI50 (UO-31) was > 100 µM (inactive), the GI50 (EKVX) was > 100 µM (inactive) and the GI50 (MDA-N) was 86.7 µM (inactive). The GI50 (786-0) was > 100 µM (inactive), the GI50 (SW-620) was > 100 µM (inactive) and the GI50 (IGROV-1) was > 100 µM (inactive). The GI50 (CCRF-CEM) was > 100 µM (inactive), the GI50 (SK-OV-3) was > 100 µM (inactive) and the GI50 (HCT-15) was over 100 µM. For the same compound, the GI50 (NCI-H226) was > 100 µM (inactive), the GI50 (SK-MEL-2) was > 100 µM (inactive) and the GI50 (MDA-MB-435) was 98.4 µM (inactive). For the same compound, the GI50 (SK-MEL-5) was 43.2 µM (inactive), the GI50 (MOLT-4) was > 100 µM (inactive) and the GI50 (HCC 2998) was > 100 µM (inactive). The GI50 (DU-145) was > 100 µM (inactive), the GI50 (CAKI-1) was > 100 µM (inactive) and the GI50 (OVCAR-5) was > 100 µM (inactive). The GI50 (RXF 393) was > 100 µM (inactive), the GI50 (SF-268) was > 100 µM (inactive) and the GI50 (HOP-62) was 63.7 µM (inactive). For the same compound, the GI50 (SK-MEL-28) was > 100 µM (inactive), the GI50 (LOX IMVI) was 72.4 µM (inactive) and the GI50 (NCI-H460) was > 100 µM (inactive). The GI50 (Malme-3M) was 43.3 µM (inactive), the GI50 (TK-10) was > 100 µM (inactive) and the GI50 (HT-29) was > 100 µM (inactive). The GI50 (SNB-19) was > 100 µM (inactive), the GI50 (SR) was > 100 µM (inactive) and the GI50 (A549) was > 100 µM (inactive). The GI50 (MDA-MB-231) was > 100 µM (inactive), the GI50 (M14) was > 100 µM (inactive) and the GI50 (UACC-62) was > 100 µM (inactive). The GI50 (NCI-H23) was > 100 µM (inactive), the GI50 (OVCAR-4) was > 100 µM (inactive) and the GI50 (BT-549) was > 100 µM (inactive). For the same compound, the GI50 (OVCAR-3) was > 100 µM (inactive), the GI50 (HCT-116) was > 100 µM (inactive) and the GI50 (UACC-257) was > 100 µM (inactive). For the same compound, the GI50 (K562) was 67.5 µM (inactive), the GI50 (NCI-H522) was 63.1 µM (inactive) and the GI50 (ACHN) was > 100 µM (inactive). For the same compound, the GI50 (A498) was > 100 µM (inactive) and the GI50 (NCI/ADR-RES) was > 100 µM (inactive).
